Experimental data reported in patent US20150189883A1, “METHODS OF CONTROLLING INSECTS” (Syngenta Participations AG, priority 2012, published 2015).
Where two headings read alike, the source gives them in different places.

How the values were obtained:
[1] = tested on: Nilaparvata lugens (Brown Plant Hopper); test: Nilaparvata lugens (Brown Plant Hopper) rice seedling spray test, mortality; type: in vivo; details: read-out: Control/%
[2] = tested on: Chilo suppressalis (Rice Stem Borer); test: Chilo suppressalis (Rice Stem Borer) treated rice leaf petri dish test, mortality; type: in vivo; details: read-out: Control/%
Description: Nephotettix virescens (Green Leafhopper) Rice seedlings are treated with the diluted test solutions in a spray chamber. After drying, plants are infested with 10 N5 nymphs (3 replicates). 5 days after the treatment samples are checked for mortality. […] After drying, plants are infested with 20 N3 nymphs (2 replicates). 6-12 days after the treatment samples are checked for mortality. […] 10 larvae (L2) are added and the dish is covered with a filter tissue and a plastic lid. 5 days after treatment the percentage mortality is assessed (3 replicates per concentration).
The data in the comparative Examples below were obtained using the methods described above.

[3] = Nilaparvata lugens (Brown plant hopper), application rate 25 ppm
[4] = Nilaparvata lugens (Brown plant hopper), application rate 50 ppm
[5] = Chilo suppressalis (Rice stem borer), application rate 0.2 ppm
[6] = Chilo suppressalis (Rice stem borer), application rate 0.8 ppm

Row | SMILES | pest or weed control at 0.2 ppm ([2]; Chilo suppressalis) | pest or weed control at 0.8 ppm ([2]; Chilo suppressalis) | pest or weed control at 25 ppm ([1]; Nilaparvata lugens) | pest or weed control at 50 ppm ([1]; Nilaparvata lugens) | other results
1 | Cc1cc(C2=NCC(c3cc(Cl)cc(Cl)c3)(C(F)(F)F)C2)ccc1C(=O)NC1CS(=O)(=O)C1 (stereo not shown) [drawing 33] | – | – | – | – | pest or weed control at 25 ppm [1, 3]: 93%; pest or weed control at 50 ppm [1, 4]: 100%
2 | Cc1cc(C2=NOC(c3cc(Cl)cc(Cl)c3)(C(F)(F)F)C2)ccc1C(=O)NC1(C)CSC1 (stereo not shown) [Reference compound, reference compound] | 30% | 40% | – | – | –
3 | Cc1cc(C2=NOC(c3cc(Cl)cc(Cl)c3)(C(F)(F)F)C2)ccc1C(=O)NC1CSC1 (stereo not shown) [Compound of the invention] | 93% | 100% | – | – | –
4 | O=C(NC1CSC1)c1ccc(C2=NO[C@@](c3cc(Cl)cc(Cl)c3)(C(F)(F)F)C2)cc1Cl [drawing 27] | 93% | 100% | – | – | –
5 | Cc1cc(C2=NOC(c3cc(Cl)cc(Cl)c3)(C(F)(F)F)C2)ccc1C(=O)NC1CSC1 (stereo not shown) [drawing 29] | – | – | 44% | 79% | –
6 | Cc1cc(C2=NCC(c3cc(Cl)cc(Cl)c3)(C(F)(F)F)C2)ccc1C(=O)NC1(C)CS(=O)(=O)C1 (stereo not shown) [drawing 24] | – | – | – | – | pest or weed control at 0.2 ppm [2, 5]: 23%; pest or weed control at 0.8 ppm [2, 6]: 60%
7 | Cc1cc(C2=NCC(c3cc(Cl)cc(Cl)c3)(C(F)(F)F)C2)ccc1C(=O)NC1(C)CSC1 (stereo not shown) [drawing 22] | – | – | – | – | pest or weed control at 0.2 ppm [2, 5]: 30%; pest or weed control at 0.8 ppm [2, 6]: 60%
8 | Cc1cc(C2=NOC(c3cc(Cl)cc(Cl)c3)(C(F)(F)F)C2)ccc1C(=O)NC1(C)CSC1 (stereo not shown) [drawing 30] | – | – | 0% | 0% | –
9 | Cc1cc(C2=NOC(c3cc(Cl)c(Br)c(Cl)c3)(C(F)(F)F)C2)ccc1C(=O)NC1(C)CSC1 (stereo not shown) [drawing 26] | 40% | 80% | – | – | –
10 | Cc1cc(C2=NCC(c3cc(Cl)cc(Cl)c3)(C(F)(F)F)C2)ccc1C(=O)NC1(C)CSC1 (stereo not shown) [drawing 32] | – | – | – | – | pest or weed control at 25 ppm [1, 3]: 0%; pest or weed control at 50 ppm [1, 4]: 0%
11 | Cc1cc(C2=NOC(c3cc(Cl)c(Br)c(Cl)c3)(C(F)(F)F)C2)ccc1C(=O)NC1(C)CSC1 (stereo not shown) [drawing 36] | – | – | 0% | 0% | –
12 | Cc1cc(C2=NCC(c3cc(Cl)cc(Cl)c3)(C(F)(F)F)C2)ccc1C(=O)NC1CSC1 (stereo not shown) [drawing 31] | – | – | – | – | pest or weed control at 25 ppm [1, 3]: 100%; pest or weed control at 50 ppm [1, 4]: 100%
13 | Cc1cc(C2=NCC(c3cc(Cl)cc(Cl)c3)(C(F)(F)F)C2)ccc1C(=O)NC1CSC1 (stereo not shown) [drawing 21] | – | – | – | – | pest or weed control at 0.2 ppm [2, 5]: 40%; pest or weed control at 0.8 ppm [2, 6]: 90%
14 | CC1(NC(=O)c2ccc(C3=NO[C@@](c4cc(Cl)cc(Cl)c4)(C(F)(F)F)C3)cc2Cl)CSC1 [drawing 28] | 80% | 97% | – | – | –
15 | Cc1cc(C2=NCC(c3cc(Cl)cc(Cl)c3)(C(F)(F)F)C2)ccc1C(=O)NC1(C)CS(=O)(=O)C1 (stereo not shown) [drawing 34] | – | – | – | – | pest or weed control at 25 ppm [1, 3]: 0%; pest or weed control at 50 ppm [1, 4]: 0%
16 | Cc1cc(C2=NOC(c3cc(Cl)c(Br)c(Cl)c3)(C(F)(F)F)C2)ccc1C(=O)NC1CSC1 (stereo not shown) [drawing 35] | – | – | 30% | 80% | –
17 | CC1(NC(=O)c2ccc(C3=NO[C@@](c4cc(Cl)cc(Cl)c4)(C(F)(F)F)C3)cc2Cl)CSC1 [drawing 38] | – | – | 0% | 30% | –
18 | O=C(NC1CSC1)c1ccc(C2=NO[C@@](c3cc(Cl)cc(Cl)c3)(C(F)(F)F)C2)cc1Cl [drawing 37] | – | – | 15% | 45% | –
19 | Cc1cc(C2=NOC(c3cc(Cl)c(Br)c(Cl)c3)(C(F)(F)F)C2)ccc1C(=O)NC1CSC1 (stereo not shown) [drawing 25] | 97% | 100% | – | – | –
20 | Cc1cc(C2=NCC(c3cc(Cl)cc(Cl)c3)(C(F)(F)F)C2)ccc1C(=O)NC1CS(=O)(=O)C1 (stereo not shown) [drawing 23] | – | – | – | – | pest or weed control at 0.2 ppm [2, 5]: 97%; pest or weed control at 0.8 ppm [2, 6]: 100%
